In assay [1] the target is Benomyl/methotrexate resistance protein (Candida albicans, UniProt P28873). Kind of assay: Candida albicans Mdr1 pump inhibition curves – singleplex, Cherry Pick1 hits, dose response (AID 588608). In kind it is functional.
Assay [2] deals with Multidrug resistance protein CDR1 (Candida albicans, UniProt P43071). The experiment in a line: Candida albicans Cdr1 pump inhibition curves – singleplex, Cherry Pick2 set, dose response (AID 623996). In kind it is functional. Conditions: read-out: EC50_MICROM.

Calls of active or inactive are those of the source. Unless noted, the calls are words filed in the database; no cut-off is given here.

Multidrug resistance protein CDR1, sequence (P43071 whole entry, looked up): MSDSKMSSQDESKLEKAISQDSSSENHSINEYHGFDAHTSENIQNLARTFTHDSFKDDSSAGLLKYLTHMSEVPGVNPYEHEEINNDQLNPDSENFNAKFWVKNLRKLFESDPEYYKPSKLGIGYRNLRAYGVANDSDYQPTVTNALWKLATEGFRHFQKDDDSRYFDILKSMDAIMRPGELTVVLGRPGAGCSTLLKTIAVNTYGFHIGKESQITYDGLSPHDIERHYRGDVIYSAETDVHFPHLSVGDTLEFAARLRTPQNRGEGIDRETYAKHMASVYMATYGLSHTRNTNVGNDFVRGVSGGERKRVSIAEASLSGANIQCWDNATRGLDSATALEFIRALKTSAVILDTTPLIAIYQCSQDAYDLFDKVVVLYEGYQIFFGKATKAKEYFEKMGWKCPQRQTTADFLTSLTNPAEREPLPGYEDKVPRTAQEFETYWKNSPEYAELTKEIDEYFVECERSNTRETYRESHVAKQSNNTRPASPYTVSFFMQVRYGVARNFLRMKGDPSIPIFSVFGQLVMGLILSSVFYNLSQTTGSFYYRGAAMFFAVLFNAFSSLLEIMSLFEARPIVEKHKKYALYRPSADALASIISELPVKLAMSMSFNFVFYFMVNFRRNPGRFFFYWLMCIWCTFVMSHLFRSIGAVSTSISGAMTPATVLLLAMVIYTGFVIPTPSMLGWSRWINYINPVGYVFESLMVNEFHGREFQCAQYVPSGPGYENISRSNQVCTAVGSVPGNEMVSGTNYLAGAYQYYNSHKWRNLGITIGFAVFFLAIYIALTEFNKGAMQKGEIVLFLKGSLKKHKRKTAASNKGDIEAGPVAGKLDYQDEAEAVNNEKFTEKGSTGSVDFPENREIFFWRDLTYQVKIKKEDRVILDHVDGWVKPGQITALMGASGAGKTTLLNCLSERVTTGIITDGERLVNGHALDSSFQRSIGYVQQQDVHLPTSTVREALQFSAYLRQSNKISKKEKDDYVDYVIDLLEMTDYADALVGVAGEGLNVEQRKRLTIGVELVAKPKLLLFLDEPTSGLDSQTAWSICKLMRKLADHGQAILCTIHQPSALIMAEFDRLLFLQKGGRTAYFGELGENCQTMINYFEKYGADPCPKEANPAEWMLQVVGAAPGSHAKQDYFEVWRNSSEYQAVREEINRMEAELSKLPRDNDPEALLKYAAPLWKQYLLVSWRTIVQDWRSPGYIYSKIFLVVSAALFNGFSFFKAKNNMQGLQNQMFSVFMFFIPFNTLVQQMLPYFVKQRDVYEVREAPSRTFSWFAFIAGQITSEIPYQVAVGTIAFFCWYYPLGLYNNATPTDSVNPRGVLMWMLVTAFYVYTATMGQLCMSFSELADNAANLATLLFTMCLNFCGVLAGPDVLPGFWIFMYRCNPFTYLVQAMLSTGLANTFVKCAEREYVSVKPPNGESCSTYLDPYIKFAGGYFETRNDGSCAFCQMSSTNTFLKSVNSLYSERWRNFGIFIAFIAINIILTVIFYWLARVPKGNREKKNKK
Benomyl/methotrexate resistance protein, sequence (P28873 whole entry): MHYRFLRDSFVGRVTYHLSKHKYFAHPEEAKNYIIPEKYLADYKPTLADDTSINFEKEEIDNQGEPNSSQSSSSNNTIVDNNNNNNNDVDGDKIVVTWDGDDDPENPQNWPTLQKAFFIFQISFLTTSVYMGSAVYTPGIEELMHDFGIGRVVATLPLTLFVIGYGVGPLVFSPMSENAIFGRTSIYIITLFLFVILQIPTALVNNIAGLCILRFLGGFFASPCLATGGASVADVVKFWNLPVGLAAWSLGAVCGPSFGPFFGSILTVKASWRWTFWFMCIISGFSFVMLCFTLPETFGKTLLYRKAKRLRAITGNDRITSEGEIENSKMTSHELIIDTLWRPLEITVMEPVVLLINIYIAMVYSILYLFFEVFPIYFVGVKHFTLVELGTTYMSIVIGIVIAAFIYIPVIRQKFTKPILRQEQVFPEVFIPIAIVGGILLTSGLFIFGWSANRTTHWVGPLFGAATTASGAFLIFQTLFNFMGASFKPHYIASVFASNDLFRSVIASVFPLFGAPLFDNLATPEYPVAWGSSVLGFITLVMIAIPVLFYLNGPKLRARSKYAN

As to `CC(C)C(=O)N1CCC2(CC1)Oc1ccc(F)cc1C(=O)C21CC(c2ccccc2)=NO1` (configuration not stated), the EC50 in assay [1] is 12.5 µM (active); in assay [2] it was 23.9 µM (active).
